≈ marks a conversion by molar mass, not a printed value. Read-outs that look alike come from different tables or passages of the source.
Experiments:
rats = conditions: p.o., cited from earlier work
[1] = test system: Neisseria gonorrhoeae CDC panel consisting of 48 isolates; experiment: Agar dilution MIC, CDC panel of 48 isolates (Example 2); assay type: cell-based; conditions: for MIC: Neisseria gonorrhoeae
Experimental: Neisseria gonorrhoeae (Neisseria gonocossus) were tested for antimicrobial susceptibility using agar dilution as described by the Clinical and Laboratory Standards Institute (CLSI), see reference (4).
The concentrations tested for each compound encompass the reported interpretive breakpoints and consist of 8 or more doubling dilutions, ensuring that there is one dilution below the lowest value of QC.
GC agar base +1% defined growth supplement.
Initial screening strains: Neisseria gonorrhoeae CDC panel consisting of 48 isolates. The strains were provided by Clinical and Environmental Microbiology Branch, Division of Healthcare Quality Promotion, CDC (Atlanta, US).
Dilution scheme for reference method: Prepare intermediate 100× antimicrobial agent solutions by making successive serial twofold dilutions. Then, add one part of the 100× antimicrobial solution to […] of molten agar. Plates containing no antimicrobial agent solutions are made for use as growth controls. It is important that no longer than one hour elapses between the time that the stock solution is thawed, the dilutions are prepared and added to the base medium and the plates are poured, see reference (5).
• Add appropriate dilutions of antimicrobial solution to molten test agars that have been allowed to equilibrate in a water bath to 50° C. • Mix the agar and antimicrobial solution thoroughly and pour (20 mL) into Petri dishes on a level surface. Pour quickly after mixing to prevent cooling and partial solidification in the mixing container. Avoid generating bubbles when mixing. • Allow the agar to solidify at room temperature and store them in sealed plastic bags at 2 to 8° C. for up to five days. Preferably use with 24 hours. • Allow plates stored at 2 to 8° C. to equilibrate to room temperature before use. Make certain that the agar surface is dry before inoculating the plates. If necessary, place the plates in an incubator or laminar flow hood for approximately 30 minutes with their lids ajar to hasten drying of the agar surface.
Inoculum preparation: Prepare a standardized inoculum for the agar dilution method by suspending isolated colonies of Neisseria gonorrhoeae selected from an 18-24 hour-old chocolate agar plate directly in Mueller Hinton Broth (MHB) to achieve the density equivalent to a 0.5 McFarland standard and adjusted to obtain a cell density of ˜1-2×10^8 CFU/mL. For N. gonorrhoeae, the McFarland solutions are made at a reading of ˜0.80 in densitometer (Grant Instruments DEN-1B Densitometer) because these values have been evaluated and correspond to the desired CFU/mL count.
Dilution of inoculum suspension: Cultures adjusted to the 0.5 McFarland standard contain approximately 1 to 2×10^8 CFU/mL with most species, and the final inoculum required is 10^4 CFU per spot. When using replicators with 3-mm pins that deliver ˜2.5 μL, dilute the 0.5 McFarland suspension 1:10 in sterile MHB to obtain a concentration of 10^7 CFU/mL. The final inoculum on the agar will be approximately 10^4 CFU per spot. Use the adjusted suspensions for final inoculation within 60 minutes of preparation, see reference (5).
The following procedure was followed: • Arrange the tubes containing the adjusted and diluted bacterial suspensions (10^7 CFU/mL) in order in a rack. Place an aliquot of each well-mixed suspension into the corresponding well in the replicator inoculum block (if being used). • Mark the agar plates for orientation of the inoculum spots. • Apply an aliquot of each inoculum (2.5 μL) to the agar surface, either with an inocula-replicating device or pipette, to obtain a final concentration of ˜10^4 CFU/spot. • Inoculate a growth-control plate (no antimicrobial agent) first and then, starting with the lowest concentration, inoculate the plates containing the different antimicrobial concentrations. […]

mice = conditions: p.o., cited from earlier work
rabbits = conditions: p.o.; cited from earlier work

Question: For O=C(Nc1ccc(Oc2ccc(Cl)cc2)c(Cl)c1)c1cc(I)cc(I)c1O [Rafoxanide, rafoxanide], which “LD50, median” value (rats; median of the studies) is on record?
Answer: The value was > 1490 mg/kg.

Question: And the LD50 (rats)?
Answer: Its LD50 is 980->2000 mg/kg.

Question: What about the MIC ([1]; read-out: MIC value, for 46 of the 48 isolates of N. gonorrhoeae) of the same compound?
Answer: The MIC was ≤ 50.2 µg/mL.

Question: And the MIC ([1]; read-out: Minimal inhibitory concentration, Neisseria gonorrhoeae strain CDC # 165)?
Answer: Its MIC is ≤ 0.25 µg/mL.

Question: And the MIC ([1]; read-out: Minimal inhibitory concentration, Neisseria gonorrhoeae strain CDC # 166)?
Answer: Its MIC is ≤ 0.25 µg/mL.

Question: What about the MIC ([1]; read-out: Minimal inhibitory concentration, Neisseria gonorrhoeae strain CDC # 167) of the same compound?
Answer: Its MIC is ≤ 0.25 µg/mL.

Question: What about the MIC ([1]; read-out: Minimal inhibitory concentration, Neisseria gonorrhoeae strain CDC # 169) of the same compound?
Answer: Its MIC is ≤ 0.25 µg/mL.

Question: And the MIC ([1]; read-out: Minimal inhibitory concentration, Neisseria gonorrhoeae strain CDC # 170)?
Answer: The MIC was ≤ 0.25 µg/mL.

Question: And the MIC ([1]; read-out: Minimal inhibitory concentration, Neisseria gonorrhoeae strain CDC # 171)?
Answer: The MIC was ≤ 0.25 µg/mL.

Question: What about the MIC ([1]; read-out: Minimal inhibitory concentration, Neisseria gonorrhoeae strain CDC # 172) of the same compound?
Answer: The MIC was ≤ 0.25 µg/mL.

Question: What about the MIC ([1]; read-out: Minimal inhibitory concentration, Neisseria gonorrhoeae strain CDC # 173) of the same compound?
Answer: The MIC was ≤ 0.25 µg/mL.

Question: And the MIC ([1]; read-out: Minimal inhibitory concentration, Neisseria gonorrhoeae strain CDC # 174)?
Answer: Its MIC is ≤ 0.25 µg/mL.

Question: And the MIC ([1]; read-out: Minimal inhibitory concentration, Neisseria gonorrhoeae strain CDC # 175)?
Answer: The MIC was ≤ 0.25 µg/mL.

Question: What about the MIC ([1]; read-out: Minimal inhibitory concentration, Neisseria gonorrhoeae strain CDC # 176) of the same compound?
Answer: Its MIC is ≤ 0.25 µg/mL.

Question: What about the MIC ([1]; read-out: Minimal inhibitory concentration, Neisseria gonorrhoeae strain CDC # 177) of the same compound?
Answer: The MIC was ≤ 0.25 µg/mL.

Question: What about the MIC ([1]; read-out: Minimal inhibitory concentration, Neisseria gonorrhoeae strain CDC # 178) of the same compound?
Answer: Its MIC is ≤ 0.25 µg/mL.

Question: And the MIC ([1]; read-out: Minimal inhibitory concentration, Neisseria gonorrhoeae strain CDC # 179)?
Answer: The MIC was ≤ 0.25 µg/mL.

Question: What about the MIC ([1]; read-out: Minimal inhibitory concentration, Neisseria gonorrhoeae strain CDC # 180) of the same compound?
Answer: The MIC was ≤ 0.25 µg/mL.

Question: And the MIC ([1]; read-out: Minimal inhibitory concentration, Neisseria gonorrhoeae strain CDC # 181)?
Answer: The MIC was ≤ 0.25 µg/mL.

Question: What about the MIC ([1]; read-out: Minimal inhibitory concentration, Neisseria gonorrhoeae strain CDC # 182) of the same compound?
Answer: Its MIC is 2 µg/mL (≈ 3.19 µM).

Question: And the MIC ([1]; read-out: Minimal inhibitory concentration, Neisseria gonorrhoeae strain CDC # 183)?
Answer: Its MIC is ≤ 0.25 µg/mL.

Question: And the MIC ([1]; read-out: Minimal inhibitory concentration, Neisseria gonorrhoeae strain CDC # 184)?
Answer: Its MIC is ≤ 0.25 µg/mL.

Question: And the MIC ([1]; read-out: Minimal inhibitory concentration, Neisseria gonorrhoeae strain CDC # 185)?
Answer: Its MIC is ≤ 0.25 µg/mL.

Question: What about the MIC ([1]; read-out: Minimal inhibitory concentration, Neisseria gonorrhoeae strain CDC # 186) of the same compound?
Answer: Its MIC is ≤ 0.25 µg/mL.

Question: And the MIC ([1]; read-out: Minimal inhibitory concentration, Neisseria gonorrhoeae strain CDC # 187)?
Answer: Its MIC is ≤ 0.25 µg/mL.

Question: What about the MIC ([1]; read-out: Minimal inhibitory concentration, Neisseria gonorrhoeae strain CDC # 188) of the same compound?
Answer: The MIC was ≤ 0.25 µg/mL.

Question: And the MIC ([1]; read-out: Minimal inhibitory concentration, Neisseria gonorrhoeae strain CDC # 189)?
Answer: Its MIC is ≤ 0.25 µg/mL.

Question: What about the MIC ([1]; read-out: Minimal inhibitory concentration, Neisseria gonorrhoeae strain CDC # 190) of the same compound?
Answer: Its MIC is ≤ 0.25 µg/mL.

Question: What about the MIC ([1]; read-out: Minimal inhibitory concentration, Neisseria gonorrhoeae strain CDC # 191) of the same compound?
Answer: The MIC was ≤ 0.25 µg/mL.

Question: And the MIC ([1]; read-out: Minimal inhibitory concentration, Neisseria gonorrhoeae strain CDC # 192)?
Answer: Its MIC is ≤ 0.25 µg/mL.

Question: And the MIC ([1]; read-out: Minimal inhibitory concentration, Neisseria gonorrhoeae strain CDC # 193)?
Answer: Its MIC is ≤ 0.25 µg/mL.

Question: And the MIC ([1]; read-out: Minimal inhibitory concentration, Neisseria gonorrhoeae strain CDC # 194)?
Answer: Its MIC is ≤ 0.25 µg/mL.

Question: And the MIC ([1]; read-out: Minimal inhibitory concentration, Neisseria gonorrhoeae strain CDC # 195)?
Answer: Its MIC is ≤ 0.25 µg/mL.

Question: What about the MIC ([1]; read-out: Minimal inhibitory concentration, Neisseria gonorrhoeae strain CDC # 196) of the same compound?
Answer: The MIC was ≤ 0.25 µg/mL.

Question: And the MIC ([1]; read-out: Minimal inhibitory concentration, Neisseria gonorrhoeae strain CDC # 198)?
Answer: Its MIC is ≤ 0.25 µg/mL.

Question: And the MIC ([1]; read-out: Minimal inhibitory concentration, Neisseria gonorrhoeae strain CDC # 199)?
Answer: Its MIC is ≤ 0.25 µg/mL.

Question: And the MIC ([1]; read-out: Minimal inhibitory concentration, Neisseria gonorrhoeae strain CDC # 200)?
Answer: The MIC was ≤ 0.25 µg/mL.

Question: What about the MIC ([1]; read-out: Minimal inhibitory concentration, Neisseria gonorrhoeae strain CDC # 201) of the same compound?
Answer: Its MIC is ≤ 0.25 µg/mL.

Question: What about the MIC ([1]; read-out: Minimal inhibitory concentration, Neisseria gonorrhoeae strain CDC # 202) of the same compound?
Answer: The MIC was ≤ 0.25 µg/mL.

Question: And the MIC ([1]; read-out: Minimal inhibitory concentration, Neisseria gonorrhoeae strain CDC # 203)?
Answer: Its MIC is ≤ 0.25 µg/mL.

Question: And the MIC ([1]; read-out: Minimal inhibitory concentration, Neisseria gonorrhoeae strain CDC # 204)?
Answer: The MIC was 0.5 µg/mL (≈ 0.799 µM).

Question: And the MIC ([1]; read-out: Minimal inhibitory concentration, Neisseria gonorrhoeae strain CDC # 205)?
Answer: Its MIC is ≤ 0.25 µg/mL.

Question: What about the MIC ([1]; read-out: Minimal inhibitory concentration, Neisseria gonorrhoeae strain CDC # 206) of the same compound?
Answer: Its MIC is ≤ 0.25 µg/mL.

Question: And the MIC ([1]; read-out: Minimal inhibitory concentration, Neisseria gonorrhoeae strain CDC # 207)?
Answer: The MIC was ≤ 0.25 µg/mL.

Question: And the MIC ([1]; read-out: Minimal inhibitory concentration, Neisseria gonorrhoeae strain CDC # 208)?
Answer: Its MIC is ≤ 0.25 µg/mL.

Question: And the MIC ([1]; read-out: Minimal inhibitory concentration, Neisseria gonorrhoeae strain CDC # 209)?
Answer: The MIC was ≤ 0.25 µg/mL.

Question: What about the MIC ([1]; read-out: Minimal inhibitory concentration, Neisseria gonorrhoeae strain CDC # 210) of the same compound?
Answer: Its MIC is ≤ 0.25 µg/mL.

Question: What about the MIC ([1]; read-out: Minimal inhibitory concentration, Neisseria gonorrhoeae strain CDC # 211) of the same compound?
Answer: The MIC was ≤ 0.25 µg/mL.

Question: And the MIC ([1]; read-out: Minimal inhibitory concentration, Neisseria gonorrhoeae strain CDC # 212)?
Answer: Its MIC is ≤ 0.25 µg/mL.

Question: What about the MIC ([1]; read-out: Minimal inhibitory concentration, Neisseria gonorrhoeae strain CDC # 213) of the same compound?
Answer: The MIC was ≤ 0.25 µg/mL.

Question: And the MIC ([1]; read-out: Minimal inhibitory concentration, Neisseria gonorrhoeae strain CDC # 214)?
Answer: Its MIC is ≤ 0.25 µg/mL.

Question: And the “in vitro activity (in words)” value ([1]; against N. gonococcus (N. gonorrhoeae), Example 2 conclusion)?
Answer: Its value is “Good in vitro activity”.

Question: What about the “LD50, median” value (mice; median of the studies) of the same compound?
Answer: Its value is 266 mg/kg.

Question: And the LD50 (mice)?
Answer: The LD50 was 232 to 300 mg/kg.

Question: What about the LD50 (rabbits) of the same compound?
Answer: The LD50 was 3200 mg/kg.
